Laboratory results: publication PMC7724566, “Prospects for Clinical Development of Stat5 Inhibitor IST5-002: High Transcriptomic Specificity in Prostate Cancer and Low Toxicity In Vivo” (Cancers, 2020)

Key:
C57BL/6j mice = assay: Sub-chronic toxicity study (10 days), plasma biochemistry; format: in vivo; settings: daily i.p. 10 days; for A-G Ratio / ALT / AST / Albumin / Alk.Ptase / Bile Acid / Chol / TBIL / Globulin / BUN: plasma; for Globulin: in g/dL (unit assumed); for BUN: in mg/dL (unit assumed)
Description: The sub-chronic toxicity study (10 days) was carried out in C57BL/6J mice (8 weeks) (stock 000664) (n = 10/dose group 5 of each sex). IST5 was administered daily (0, 10, 30 and 100 mg/kg) via i.p. injection. Vehicle (0 mg/kg) group mice received a single i.p. injection of 0.3% hydroxypropyl cellulose. Plasma samples were analyzed for aspartate aminotransferase (AST), alanine aminotransferase (ALT), sorbitol dehydrogenase (SDH), alkaline phosphatase (ALP), γ-lutamyltransferase (GGT), lactate dehydrogenase (LDH), bilirubin (TBIL), protein (TP), glucose (GLU), blood urea nitrogen (BUN), creatinine (CREAT), and electrolytes (Na, K, Cl, Ca, CO2) (Marshfield Labs, WI, USA). A detailed hematological analysis was carried out on the sub-mandibular blood samples of mice collected at the end of the protocol and analyzed for white blood cells, red blood cells, hemoglobin, lymphocyte counts, monocytes, eosinophils and granulocytes. Brain, liver, heart, kidney and spleen were harvested, weighed and fixed in 10% buffered formalin and processed for histopathological analysis. In histopathological analysis, gross morphology and ultra-structural change were assessed. The clinical chemistry parameters measured were the same as those used for the acute toxicity study.

[1] = system: enzalutamide-resistant PC; parameters: method as in PMID 31548294; settings: cited from earlier work
athymic nude mice = assay: Acute toxicity study, plasma biochemistry; format: in vivo; settings: for ALT / AST / Albumin / Alk.Ptase / BUN / Bile Acid / Chol / Globulin / TBIL: plasma
Description: The acute toxicity study of the compound IST5 was carried out in athymic nude mice (8 weeks) (Crl:NU/NCr-Foxn1n) of either sex (n = 8/dose group, 4 of each sex). IST5 compound was administered once (0, 10, 30, and 100 mg/kg) via single intra-peritoneal (i.p.) injection, and the mice in the vehicle (0 mg/kg) group received each a single i.p. injection of 0.3% hydroxypropyl cellulose. Plasma samples were analyzed for liver (AST, […], alkaline phosphatase, total bilirubin, bile acid) and kidney functions (BUN, albumin, globulin and albumin-globulin ratio) (Marshfields Labs, WI, USA).
The following clinical chemistry parameters were measured: Aspartate aminotransferase (AST), alanine aminotransferase (ALT), sorbitol dehydrogenase (SDH), alkaline phosphatase (ALP), γ-glutamyltransferase (GGT), lactate dehydrogenase (LDH), bilirubin (TBIL), protein (TP), glucose (GLU), blood urea nitrogen (BUN), creatinine (CREAT), and electrolytes (Na, K, Cl, Ca, CO2).

In the case of `O=P(O)(O)OCC1OC(n2cnc3c(NCc4ccccc4)ncnc32)C(O)C1O` (centres unmarked) [IST5], the BW (C57BL/6j mice; 10 mg/kg) is reported as 22.5 ± 1.1 gm, the HCT (C57BL/6j mice; 10 mg/kg) is reported as 0.43 ± 0.02 L/L and the A-G Ratio (C57BL/6j mice; 10 mg/kg) is reported as 1.93 ± 0.08. For the same compound, the ALT (C57BL/6j mice; 10 mg/kg) was 50.4 ± 3.71 U/L, the AST (C57BL/6j mice; 10 mg/kg) was 329.9 ± 30.9 U/L and the Albumin (C57BL/6j mice; 10 mg/kg) was 2.69 ± 0.05 g/dL. For the same compound, the Alk.Ptase (C57BL/6j mice; 10 mg/kg) was 51.3 ± 0.72 U/L, the “Bile Acid” value (C57BL/6j mice; 10 mg/kg) was 21.0 ± 12.7 µmol/dL and the Chol (C57BL/6j mice; 10 mg/kg) was 65.0 ± 2.09 mg/dL. It also gave a TBIL (C57BL/6j mice; 10 mg/kg) of 0.26 ± 0.02 mg/dL, a Globulin (C57BL/6j mice; 10 mg/kg) of 1.41 ± 0.04 and a BUN (C57BL/6j mice; 10 mg/kg) of 20.5 ± 0.82. The BW (C57BL/6j mice; 30 mg/kg) was 23.5 ± 0.6 gm, the HCT (C57BL/6j mice; 30 mg/kg) was 0.45 ± 0.01 L/L and the A-G Ratio (C57BL/6j mice; 30 mg/kg) was 1.9 ± 0.11. It also gave an ALT (C57BL/6j mice; 30 mg/kg) of 45.2 ± 3.76 U/L, an AST (C57BL/6j mice; 30 mg/kg) of 336 ± 57.1 U/L and an Albumin (C57BL/6j mice; 30 mg/kg) of 2.74 ± 0.07 g/dL. The Alk.Ptase (C57BL/6j mice; 30 mg/kg) was 53.0 ± 1.93 U/L, the “Bile Acid” value (C57BL/6j mice; 30 mg/kg) was 2.39 ± 0.32 µmol/dL and the Chol (C57BL/6j mice; 30 mg/kg) was 70.3 ± 1.38 mg/dL. For the same compound, the TBIL (C57BL/6j mice; 30 mg/kg) was 0.21 ± 0.01 mg/dL, the Globulin (C57BL/6j mice; 30 mg/kg) was 1.47 ± 0.07 and the BUN (C57BL/6j mice; 30 mg/kg) was 25 ± 1.32. The “enzalutamide-resistant PC growth in mice” value [1] was “blocks enzalutamide-resistant PC growth”, the BW (athymic nude mice; single i.p. 10 mg/kg) was 22.8 ± 0.79 g and the ALT (athymic nude mice; single i.p. 10 mg/kg) was 62.1 ± 11.0 U/L. The AST (athymic nude mice; single i.p. 10 mg/kg) was 284 ± 78.7 U/L, the Albumin (athymic nude mice; single i.p. 10 mg/kg) was 3.25 ± 0.01 g/dL and the Alk.Ptase (athymic nude mice; single i.p. 10 mg/kg) was 43.17 ± 3.5 U/L. The BUN (athymic nude mice; single i.p. 10 mg/kg) was 27.67 ± 1.4, the “Bile Acid” value (athymic nude mice; single i.p. 10 mg/kg) was 0.88 ± 0.40 µmol/dL and the Chol (athymic nude mice; single i.p. 10 mg/kg) was 67.80 ± 5.0 mg/dL. It also gave a Globulin (athymic nude mice; single i.p. 10 mg/kg) of 1.4 ± 0.01, a TBIL (athymic nude mice; single i.p. 10 mg/kg) of 0.51 ± 0.10 mg/dL and a BW (athymic nude mice; single i.p. 30 mg/kg) of 21.9 ± 089 g. It also gave an ALT (athymic nude mice; single i.p. 30 mg/kg) of 100 ± 23.9 U/L, an AST (athymic nude mice; single i.p. 30 mg/kg) of 488 ± 168 U/L and an Albumin (athymic nude mice; single i.p. 30 mg/kg) of 4.16 ± 0.59 g/dL. For the same compound, the Alk.Ptase (athymic nude mice; single i.p. 30 mg/kg) was 57.0 ± 6.82 U/L, the BUN (athymic nude mice; single i.p. 30 mg/kg) was 29.6 ± 1.79 and the “Bile Acid” value (athymic nude mice; single i.p. 30 mg/kg) was 3.35 ± 2.87 µmol/dL. For the same compound, the Chol (athymic nude mice; single i.p. 30 mg/kg) was 182 ± 57.8 mg/dL, the Globulin (athymic nude mice; single i.p. 30 mg/kg) was 1.4 ± 0.08 and the TBIL (athymic nude mice; single i.p. 30 mg/kg) was 1.16 ± 0.43 mg/dL. It also gave a BW (athymic nude mice; single i.p. 100 mg/kg) of 22.0 ± 0.97 g, an HCT (athymic nude mice; single i.p. 100 mg/kg) of 0.44 ± 0.01 L/L and an ALT (athymic nude mice; single i.p. 100 mg/kg) of 73.2 ± 15.4 U/L. For the same compound, the AST (athymic nude mice; single i.p. 100 mg/kg) was 377 ± 96.7 U/L, the Albumin (athymic nude mice; single i.p. 100 mg/kg) was 3.32 ± 0.15 g/dL and the Alk.Ptase (athymic nude mice; single i.p. 100 mg/kg) was 55.8 ± 5.42 U/L. For the same compound, the BUN (athymic nude mice; single i.p. 100 mg/kg) was 28.6 ± 1.14, the “Bile Acid” value (athymic nude mice; single i.p. 100 mg/kg) was 2.52 ± 1.28 µmol/dL and the Chol (athymic nude mice; single i.p. 100 mg/kg) was 89.4 ± 5.91 mg/dL. It also gave a Globulin (athymic nude mice; single i.p. 100 mg/kg) of 1.28 ± 0.10 and a TBIL (athymic nude mice; single i.p. 100 mg/kg) of 0.62 ± 0.09 mg/dL.
